This assay deals with HBV. Briefly: HBV infection in HepG2-NTCP cells (HBeAg AlphaLISA in supernatants). The class given is cell-based. The following applies: Hepatitis B virus, 192 h; HBV infection of HepG2-NTCP cells; HBeAg in supernatants at day 8 post infection; read-out: Cellular EC50. In short, it runs like this: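 Readout was day-8 supernatant HBeAg by AlphaLISA, with EC50 set against DMSO controls and binned A<0.1 μM, B 0.1-1 μM, C>1 μM. Compounds were added 2 h before HBV (2000 GE/cell, 4% PEG, 0.5% DMSO) to HepG2-NTCP A3 cells; from day 1 medium held 2.5% DMSO.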
A general note: Alpha assays give light when donor and acceptor beads are brought close together.

Consider `Cc1c(F)cccc1Oc1cc2c(cc1-c1ccc(F)c(C(=O)O)c1)S(=O)(=O)N(C)[C@H](C1CCCCC1)CN2c1ccccc1` [Example 410], for which the EC50 is less than 100 nM. As to `CC(C)C[C@@H]1CN(c2ccccc2)c2cc(Cl)c(-c3cc(OC(F)(F)F)cc(C(=O)O)c3)cc2S(=O)(=O)N1C` [Example 161], the EC50 lay within 100 to 1000 nM.

Turning to `CN1[C@H](C2CCCCC2)CN(c2ccccc2)c2cc(Cl)c(-c3ccc(F)c(S(N)(=O)=O)c3)cc2S1(=O)=O` [Example 199], the EC50 was in the range of 100 to 1000 nM. For `CN1[C@H](C2CCCCC2)CN(c2cc(F)cc(F)c2F)c2cc(Cl)c(-c3ccc(F)c(C(=O)O)c3)cc2S1(=O)=O` [Example 299], the concentration for a half-maximal effect (EC50) was 100 to 1000 nM.

On to `Cc1cc(COc2cc3c(cc2-c2cc(F)c(C(=O)O)s2)S(=O)(=O)N(C)[C@H](C2CCCCC2)CN3c2ccccc2)c(C)s1` [Example 492], for which the EC50 was less than 100 nM. As for `CCCC[C@H]1CN(c2ccccc2)c2cc(N3CCCC3)c(-c3cccc(C(=O)O)c3)cc2S(=O)(=O)N1C` [Example 538], the EC50 was greater than 1000 nM. On to `CN1[C@H](C2CCCCC2)CN(c2ccccc2)c2cc(N3CCCCC3)c(-c3ccc(Cl)c(C(=O)O)c3)cc2S1(=O)=O` [Example 558, (R)-2-chloro-5-(3-cyclohexyl-2-methyl-1,1-dioxido-5-phenyl-7-(piperidin-1-yl)-2,3,4,5-tetrahydrobenzo[f][1,2,5]thiadiazepin-8-yl)benzoic acid], for which the EC50 is less than 100 nM. For the compound `CN1[C@H](C2CCCCC2)CN(c2ccccc2)c2cc(Cl)c(-c3cc(NC(=O)OCC(C)(C)C)c(C(=O)O)s3)cc2S1(=O)=O` [Example 255], the EC50 is less than 100 nM.

For `CC1CN(c2ccccc2)c2cc(C#N)c(-c3cccc(C(=O)O)c3)cc2S(=O)(=O)N1C` (stereo not shown) [Example 12, 3-(7-cyano-2,3-dimethyl-1,1-dioxido-5-phenyl-2,3,4,5-tetrahydrobenzo[f][1,2,5]thiadiazepin-8-yl)benzoic acid], the EC50 was greater than 1000 nM. `CCCCC1CN(c2ccccc2)c2cc(C(F)(F)F)c(-c3ccc(F)c(C(=O)O)c3)cc2S(=O)(=O)N1C` (stereo not shown) [Example 568, 5-(3-butyl-2-methyl-1,1-dioxido-5-phenyl-7-(trifluoromethyl)-2,3,4,5-tetrahydrobenzo[f][1,2,5]thiadiazepin-8-yl)-2-fluorobenzoic acid]: the EC50 lay within 100 to 1000 nM. Consider `CN1[C@@H](CC2CC2)CN(c2ccccc2)c2cc(Cl)c(-c3cccc(C(=O)O)c3)cc2S1(=O)=O` [Example 41], for which the EC50 is greater than 1000 nM. `CN1[C@H](C2CCCCC2)CN(c2ccccc2)c2cc(C#CC(C)(C)O)c(-c3ccc(F)c(C(=O)O)c3)cc2S1(=O)=O` [Example 603]: the EC50 fell in the range of 100 to 1000 nM. For `CC(C)C[C@@H]1CN(c2ccccc2)c2cc(Cl)c(-c3cccc(/C=C/C(=O)O)c3)cc2S(=O)(=O)N1C` [Example 171], the EC50 is greater than 1000 nM. For `Cc1cc(-c2cc3c(cc2OC2CCC2)N(c2ccccc2)C[C@@H](C2CCCCC2)N(C)S3(=O)=O)sc1C(=O)O` [Example 513, (R)-5-(7-cyclobutoxy-3-cyclohexyl-2-methyl-1,1-dioxido-5-phenyl-2,3,4,5-tetrahydrobenzo[f][1,2,5]thiadiazepin-8-yl)-3-methylthiophene-2-carboxylic acid], the EC50 is less than 100 nM. As to `CC(C)C[C@@H]1CN(c2ccccc2)c2cc(Nc3ccccc3F)c(-c3ccc(Cl)c(C(=O)O)c3)cc2S(=O)(=O)N1C` [Example 546], the EC50 lay in the range of 100 to 1000 nM. `CN1[C@H](C2CCCCC2)CN(c2ccccc2)c2cc(Cl)c(-c3cccc(C(=O)O)c3Cl)cc2S1(=O)=O` [Example 152, (R)-2-chloro-3-(7-chloro-3-cyclohexyl-2-methyl-1,1-dioxido-5-phenyl-2,3,4,5-tetrahydrobenzo[f][1,2,5]thiadiazepin-8-yl)benzoic acid]: the EC50 is greater than 1000 nM. Consider `CC(C)C[C@@H]1CN(c2ccccc2)c2cc(Cl)c(-c3ccc([N+](=O)[O-])c(C(=O)O)c3)cc2S(=O)(=O)N1C` [Example 183], for which the EC50 is less than 100 nM. For the compound `CN1[C@H](C2CCCCC2)CN(c2ccccc2)c2cc(C3CCN(C(=O)c4ccno4)CC3)c(-c3ccc(F)c(C(=O)O)c3)cc2S1(=O)=O` [Example 599], the EC50 was greater than 1000 nM.

For the compound `CC(C)C[C@@H]1CN(c2ccccc2)c2cc(Oc3cc(Cl)cc(Cl)c3)c(-c3ccc(F)c(C(=O)O)c3)cc2S(=O)(=O)N1C` [Example 435], the EC50 was less than 100 nM. As to `Cc1cc(COc2cc3c(cc2-c2cc(F)c(C(=O)O)s2)S(=O)(=O)N(C)[C@H](C2CCCCC2)CN3c2ccccc2)cs1` [Example 493], the EC50 lay within 100 to 1000 nM. Consider `CN1[C@H](C2CCCCC2)CN(c2ccccc2)c2cc(Cl)c(-c3cc(C(=O)O)c(Cl)s3)cc2S1(=O)=O` [Example 123], for which the EC50 was less than 100 nM. In the case of `CSc1cc2c(cc1-c1ccc(F)c(C(=O)O)c1)S(=O)(=O)N1CC(C)(C)CC1CN2c1ccccc1` (stereo not shown) [Example 20] it was 100 to 1000 nM.

Regarding `CN1[C@H](C2CCCCC2)CN(c2ccccc2)c2cc(Cl)c(-c3cccc(C(=O)C(=O)O)c3)cc2S1(=O)=O` [Example 207], the EC50 is less than 100 nM.

As for `CC(C)C[C@@H]1CN(c2ccccc2)c2cc(Oc3ccc(F)cc3)c(-c3ccc(F)c(C(=O)O)c3)cc2S(=O)(=O)N1C` [Example 430], the EC50 was less than 100 nM. For the compound `CN1[C@H](C2CCCCC2)CN(c2ccc(C(F)F)cc2)c2cc(Cl)c(-c3ccc(F)c(C(=O)O)c3)cc2S1(=O)=O` [Example 303], the concentration giving a half-maximal response (EC50) is 100 to 1000 nM. For `CN1[C@H](C2CCCCC2)CN(c2ccccc2)c2cc(C3COC3)c(-c3ccc(F)c(C(=O)O)c3)cc2S1(=O)=O` [Example 588], the EC50 lay within 100 to 1000 nM.

For `CC(C)C[C@@H]1CN(c2ccccc2)c2cc(-c3ccc(F)cc3)c(-c3ccc(F)c(C(=O)O)c3)cc2S(=O)(=O)N1C` [Example 573, (R)-2-fluoro-5-(7-(4-fluorophenyl)-3-isobutyl-2-methyl-1,1-dioxido-5-phenyl-2,3,4,5-tetrahydrobenzo[f][1,2,5]thiadiazepin-8-yl)benzoic acid], the EC50 was less than 100 nM. Turning to `COc1ccccc1Oc1cc2c(cc1-c1ccc(F)c(C(=O)O)c1)S(=O)(=O)N(C)[C@H](CC(C)C)CN2c1ccccc1` [Example 428], the EC50 was less than 100 nM. On to `CCCC[C@@H]1CN(c2ccccc2)c2cc(Oc3ccc(Cl)cc3)c(-c3ccc(F)c(C(=O)O)c3)cc2S(=O)(=O)N1C` [Example 418], for which the EC50 is less than 100 nM. Consider `CC(C)C[C@@H]1CN(c2ccccc2)c2cc(O[C@@H]3C[C@H](C)CCC3C(C)C)c(-c3ccc(F)c(C(=O)O)c3)cc2S(=O)(=O)N1C` (stereo partly shown) [Example 442], for which the EC50 was less than 100 nM. With `CN1[C@H](C2CCC2)CN(c2ccccc2)c2cc(Oc3ccccc3F)c(-c3ccc(F)c(C(=O)O)c3)cc2S1(=O)=O` [Example 463] the figure was less than 100 nM; with `CN1[C@H](CN2CCC(F)(F)CC2)CN(c2ccccc2)c2cc(Cl)c(-c3ccc(F)c(C(=O)O)c3)cc2S1(=O)=O` [Example 113], greater than 1000 nM. Regarding `CCC[C@@H]1CN(c2ccccc2)c2cc(Cl)c(-c3ccc(F)c(C(=O)O)c3)cc2S(=O)(=O)N1C` [Example 47], the concentration for a half-maximal effect (EC50) lay in the range of 100 to 1000 nM. In the case of `Cc1ccc(C(=O)O)cc1-c1cc2c(cc1Cl)N(c1ccccc1)C[C@@H](C1CCCCC1)N(C)S2(=O)=O` [Example 145, (R)-3-(7-chloro-3-cyclohexyl-2-methyl-1,1-dioxido-5-phenyl-2,3,4,5-tetrahydrobenzo[f][1,2,5]thiadiazepin-8-yl)-4-methylbenzoic acid], the EC50 is greater than 1000 nM.

Usually EC50 stands for the concentration at which the effect is half-maximal.

The values are drawn from patent publication US20240368096A1 (Enanta Pharmaceuticals, Inc., priority 2022, published 2024).
